In experiment [1] the target is Serine/threonine-protein kinase 26 (Homo sapiens, UniProt Q9P289). The experiment is described as follows: Selectivity interaction (KinomeScan (DiscoverX)) EUB0000092b STK26. To be noted: at 10 µM.
Experiment [2] deals with T1, Mitogen-activated protein kinase kinase kinase 15 (Homo sapiens) (UniProt Q6ZN16).
T1 sequence (whole entry): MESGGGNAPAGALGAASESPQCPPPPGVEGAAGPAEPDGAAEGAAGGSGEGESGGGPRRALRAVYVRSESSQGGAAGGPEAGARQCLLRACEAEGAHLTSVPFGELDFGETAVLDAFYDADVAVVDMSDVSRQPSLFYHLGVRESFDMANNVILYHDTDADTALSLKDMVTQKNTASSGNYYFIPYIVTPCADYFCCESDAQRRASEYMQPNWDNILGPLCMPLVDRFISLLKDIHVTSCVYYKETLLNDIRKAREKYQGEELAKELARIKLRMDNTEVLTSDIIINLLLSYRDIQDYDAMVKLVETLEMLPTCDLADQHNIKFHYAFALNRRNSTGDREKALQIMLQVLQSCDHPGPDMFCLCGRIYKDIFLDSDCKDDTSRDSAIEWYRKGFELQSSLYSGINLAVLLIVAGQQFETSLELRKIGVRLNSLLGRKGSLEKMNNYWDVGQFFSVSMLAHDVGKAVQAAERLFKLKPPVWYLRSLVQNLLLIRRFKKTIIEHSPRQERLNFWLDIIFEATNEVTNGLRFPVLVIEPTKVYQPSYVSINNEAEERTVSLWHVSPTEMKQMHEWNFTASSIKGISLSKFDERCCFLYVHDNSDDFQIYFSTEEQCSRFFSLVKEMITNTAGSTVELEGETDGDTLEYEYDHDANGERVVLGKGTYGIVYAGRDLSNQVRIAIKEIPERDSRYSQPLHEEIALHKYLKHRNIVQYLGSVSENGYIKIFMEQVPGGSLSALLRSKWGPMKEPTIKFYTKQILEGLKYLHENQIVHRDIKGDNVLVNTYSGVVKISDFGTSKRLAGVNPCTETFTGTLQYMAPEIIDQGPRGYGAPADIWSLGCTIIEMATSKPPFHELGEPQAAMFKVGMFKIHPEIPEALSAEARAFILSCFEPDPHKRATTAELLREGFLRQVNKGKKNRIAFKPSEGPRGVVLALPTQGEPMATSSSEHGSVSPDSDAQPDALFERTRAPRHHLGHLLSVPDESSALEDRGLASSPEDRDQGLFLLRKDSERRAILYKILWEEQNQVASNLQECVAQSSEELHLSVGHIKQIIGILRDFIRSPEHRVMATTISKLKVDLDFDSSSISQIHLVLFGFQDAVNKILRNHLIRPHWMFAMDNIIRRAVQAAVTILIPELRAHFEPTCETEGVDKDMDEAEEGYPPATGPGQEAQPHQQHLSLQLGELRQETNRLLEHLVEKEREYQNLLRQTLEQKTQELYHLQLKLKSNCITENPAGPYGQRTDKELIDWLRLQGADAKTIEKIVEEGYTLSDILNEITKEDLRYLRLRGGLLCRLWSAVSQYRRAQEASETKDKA
The experiment is described as follows: Selectivity interaction (KinomeScan (DiscoverX)) EUB0000092b MAP3K15. Particulars: at 10 µM.

In experiment [3] the target is T2, Atypical kinase COQ8B, mitochondrial (Homo sapiens) (UniProt Q96D53).
T2 sequence (whole entry): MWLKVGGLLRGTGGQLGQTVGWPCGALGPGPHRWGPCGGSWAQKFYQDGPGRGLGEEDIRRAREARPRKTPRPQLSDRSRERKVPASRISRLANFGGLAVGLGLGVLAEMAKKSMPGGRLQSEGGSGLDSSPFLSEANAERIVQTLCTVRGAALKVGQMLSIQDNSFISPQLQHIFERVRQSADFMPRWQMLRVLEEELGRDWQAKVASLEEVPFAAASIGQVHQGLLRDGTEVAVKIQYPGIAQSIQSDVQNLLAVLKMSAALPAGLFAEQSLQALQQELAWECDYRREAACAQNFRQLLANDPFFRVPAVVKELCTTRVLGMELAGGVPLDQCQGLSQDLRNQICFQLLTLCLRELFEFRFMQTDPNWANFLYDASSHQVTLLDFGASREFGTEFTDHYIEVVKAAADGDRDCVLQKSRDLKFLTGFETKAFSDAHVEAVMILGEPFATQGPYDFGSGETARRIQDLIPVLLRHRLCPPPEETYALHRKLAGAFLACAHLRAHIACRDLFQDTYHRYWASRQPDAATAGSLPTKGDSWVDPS
The experiment is described as follows: Selectivity interaction (KinomeScan (DiscoverX)) EUB0001049a ADCK4. Particulars: at 1 µM.

The target of experiment [4] is Bone morphogenetic protein receptor type-1A (Homo sapiens, UniProt P36894). As to the kind of experiment: Selectivity interaction (KinomeScan (DiscoverX)) EUB0001049a BMPR1A. Particulars: at 1 µM.
For experiment [5], the target named is Serine/threonine-protein kinase pim-3 (Homo sapiens) (UniProt Q86V86). The experiment is described as follows: Selectivity interaction (KinomeScan (DiscoverX)) EUB0001049a PIM3. Particulars: at 1 µM.
The target in experiment [6] is Casein kinase I isoform alpha (Homo sapiens, UniProt P48729). As to the kind of experiment: Selectivity interaction (KinomeScan (DiscoverX)) EUB0000045b CSNK1A1.
In experiment [7] the target is AMPK alpha2/beta2/gamma1 (Homo sapiens) (UniProt P54646+O43741+P54619). The experiment is described as follows: (§1) Selectivity interaction (LanthaScreen Eu Kinase Binding Assay) EUB0001632a […]. The class given is protein-complex assay. To be noted: at 10 µM. (In general: Time-resolved FRET reads energy transfer from a long-lived donor to a nearby acceptor.)
The target of experiment [8] is AMPK alpha1/beta1/gamma3 (Homo sapiens) (UniProt Q9Y478+Q13131+Q9UGI9). The description is as §1. It counts as protein-complex assay. Particulars: at 10 µM.
Experiment [9] concerns the target AMPK alpha1/beta1/gamma2 (Homo sapiens) (UniProt Q9UGJ0+Q9Y478+Q13131). Described as §1. The class given is protein-complex assay. Particulars: at 10 µM.
Experiment [10] concerns the target AMP-activated protein kinase alpha-2/beta-2/gamma-2 (Homo sapiens) (UniProt P54646+O43741+Q9UGJ0). The experiment is described as §1. Particulars: at 10 µM. The class given is protein-complex assay.
The target of experiment [11] is AMPK alpha1/beta2/gamma1 (Homo sapiens) (UniProt O43741+P54619+Q13131). Described as §1. The class given is protein-complex assay. To be noted: at 10 µM.
Experiment [12] deals with Cyclin-dependent kinase 9 (Homo sapiens, UniProt P50750). The experiment is described as follows: Selectivity interaction (KinomeScan (DiscoverX)) EUB0000607a CDK9. To be noted: at 10 µM.
Experiment [13] addresses Casein kinase I isoform epsilon (Homo sapiens, UniProt P49674). The experiment is described as follows: Selectivity interaction (ActivX KiNativ screen (kinase selectivity in THP-1 cell lysates)) EUB0000639a CSNK1E. The class given is subcellular. To be noted: lysate.
Experiment [14] has as its target Serine/threonine-protein kinase Nek4 (Homo sapiens) (UniProt P51957). As to the kind of experiment: Selectivity interaction (KinomeScan (DiscoverX)) EUB0000229b NEK4. To be noted: at 10 µM.
Experiment [15] deals with Phosphatidylinositol 4-phosphate 5-kinase type-1 alpha (Homo sapiens) (UniProt Q99755). As to the kind of experiment: Selectivity interaction (KinomeScan (DiscoverX)) EUB0000229b PIP5K1A. Particulars: at 10 µM.
For experiment [16], the target named is Serine/threonine-protein kinase 10 (Homo sapiens) (UniProt O94804). As to the kind of experiment: Selectivity interaction (KinomeScan (DiscoverX)) EUB0000618a STK10. Particulars: at 10 µM.

Consider eight molecules from ChEMBL document CHEMBL5465560, “Selectivity Literature for EUbOPEN Chemogenomic Library” (2024).

Chain of Casein kinase I isoform epsilon (P49674 whole entry, looked up, canonical isoform): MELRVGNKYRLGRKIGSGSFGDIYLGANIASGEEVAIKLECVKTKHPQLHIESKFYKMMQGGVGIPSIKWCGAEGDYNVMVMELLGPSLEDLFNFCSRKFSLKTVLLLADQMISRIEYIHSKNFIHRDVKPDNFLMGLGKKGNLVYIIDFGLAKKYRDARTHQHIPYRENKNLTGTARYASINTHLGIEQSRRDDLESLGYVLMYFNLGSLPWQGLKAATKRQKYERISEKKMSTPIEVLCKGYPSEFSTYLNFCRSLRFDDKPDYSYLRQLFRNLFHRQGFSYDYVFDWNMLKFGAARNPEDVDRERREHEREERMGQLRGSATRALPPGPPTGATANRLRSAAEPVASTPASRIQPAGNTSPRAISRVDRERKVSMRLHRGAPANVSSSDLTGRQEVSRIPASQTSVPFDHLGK
Chain of Casein kinase I isoform alpha (P48729 2-337 limits assumed): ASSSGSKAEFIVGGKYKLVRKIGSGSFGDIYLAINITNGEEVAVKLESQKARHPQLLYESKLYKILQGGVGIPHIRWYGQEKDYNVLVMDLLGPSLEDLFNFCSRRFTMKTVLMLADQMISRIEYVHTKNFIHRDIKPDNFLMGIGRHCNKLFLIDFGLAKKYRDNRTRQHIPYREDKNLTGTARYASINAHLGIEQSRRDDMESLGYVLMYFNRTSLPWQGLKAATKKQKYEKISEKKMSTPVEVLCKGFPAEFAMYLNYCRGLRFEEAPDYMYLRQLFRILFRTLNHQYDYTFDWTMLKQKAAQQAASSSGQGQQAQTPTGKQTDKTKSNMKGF
Chain of AMP-activated protein kinase alpha-2/beta-2/gamma-2 (Homo sapiens) (O43741 whole entry, looked up): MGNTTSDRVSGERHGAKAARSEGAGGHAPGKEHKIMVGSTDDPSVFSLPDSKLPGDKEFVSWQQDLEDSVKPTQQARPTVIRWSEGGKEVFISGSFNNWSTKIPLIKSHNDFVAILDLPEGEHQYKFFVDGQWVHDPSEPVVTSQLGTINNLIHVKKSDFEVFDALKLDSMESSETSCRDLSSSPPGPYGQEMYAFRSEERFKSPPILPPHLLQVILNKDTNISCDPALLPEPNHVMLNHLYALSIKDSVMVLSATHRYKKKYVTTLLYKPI
Chain of AMP-activated protein kinase alpha-2/beta-2/gamma-2 (Homo sapiens) (P54646 whole entry, looked up): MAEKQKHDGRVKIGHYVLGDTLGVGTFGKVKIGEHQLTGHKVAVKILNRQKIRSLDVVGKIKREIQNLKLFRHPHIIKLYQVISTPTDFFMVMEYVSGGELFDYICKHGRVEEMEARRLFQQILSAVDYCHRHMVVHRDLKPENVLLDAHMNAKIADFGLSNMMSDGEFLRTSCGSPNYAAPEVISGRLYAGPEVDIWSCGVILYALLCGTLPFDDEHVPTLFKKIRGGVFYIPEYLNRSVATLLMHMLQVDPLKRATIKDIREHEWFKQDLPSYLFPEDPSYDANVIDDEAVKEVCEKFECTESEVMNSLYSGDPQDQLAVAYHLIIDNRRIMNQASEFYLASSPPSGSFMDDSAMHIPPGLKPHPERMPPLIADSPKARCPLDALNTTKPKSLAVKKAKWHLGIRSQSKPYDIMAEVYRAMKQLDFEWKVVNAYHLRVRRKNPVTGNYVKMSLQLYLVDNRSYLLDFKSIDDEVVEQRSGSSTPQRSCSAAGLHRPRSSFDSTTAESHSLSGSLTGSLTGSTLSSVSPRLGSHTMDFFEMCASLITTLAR
Chain of AMP-activated protein kinase alpha-2/beta-2/gamma-2 (Homo sapiens) (Q9UGJ0 whole entry, looked up): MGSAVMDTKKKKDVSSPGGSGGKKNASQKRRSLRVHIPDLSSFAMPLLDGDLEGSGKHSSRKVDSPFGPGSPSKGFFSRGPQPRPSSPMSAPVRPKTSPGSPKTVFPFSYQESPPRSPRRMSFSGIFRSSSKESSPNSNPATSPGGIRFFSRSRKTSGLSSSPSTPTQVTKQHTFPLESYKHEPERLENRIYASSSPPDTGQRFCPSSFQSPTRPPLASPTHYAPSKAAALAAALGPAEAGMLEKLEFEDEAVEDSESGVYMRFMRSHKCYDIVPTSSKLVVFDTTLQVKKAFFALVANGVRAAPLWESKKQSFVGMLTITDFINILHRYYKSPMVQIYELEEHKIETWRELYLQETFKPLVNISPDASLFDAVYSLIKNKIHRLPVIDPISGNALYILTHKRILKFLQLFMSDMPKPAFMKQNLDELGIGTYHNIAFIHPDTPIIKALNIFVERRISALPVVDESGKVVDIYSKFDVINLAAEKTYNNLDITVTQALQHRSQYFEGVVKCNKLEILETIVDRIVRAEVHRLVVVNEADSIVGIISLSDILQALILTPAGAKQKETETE
Chain of AMPK alpha1/beta2/gamma1 (Homo sapiens) (O43741 whole entry, looked up): as the sequence (O43741 whole entry, looked up) above
Chain of AMPK alpha1/beta2/gamma1 (Homo sapiens) (P54619 whole entry, looked up): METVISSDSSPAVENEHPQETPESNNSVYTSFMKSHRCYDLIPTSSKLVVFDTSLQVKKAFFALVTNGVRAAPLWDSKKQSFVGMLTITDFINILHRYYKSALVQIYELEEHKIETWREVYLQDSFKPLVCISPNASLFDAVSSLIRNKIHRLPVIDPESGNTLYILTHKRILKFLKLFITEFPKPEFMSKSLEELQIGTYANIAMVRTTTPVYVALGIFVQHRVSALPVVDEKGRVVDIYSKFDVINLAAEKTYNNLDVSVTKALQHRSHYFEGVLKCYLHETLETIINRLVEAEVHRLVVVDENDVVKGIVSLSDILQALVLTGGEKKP
Chain of AMPK alpha1/beta2/gamma1 (Homo sapiens) (Q13131 whole entry, looked up): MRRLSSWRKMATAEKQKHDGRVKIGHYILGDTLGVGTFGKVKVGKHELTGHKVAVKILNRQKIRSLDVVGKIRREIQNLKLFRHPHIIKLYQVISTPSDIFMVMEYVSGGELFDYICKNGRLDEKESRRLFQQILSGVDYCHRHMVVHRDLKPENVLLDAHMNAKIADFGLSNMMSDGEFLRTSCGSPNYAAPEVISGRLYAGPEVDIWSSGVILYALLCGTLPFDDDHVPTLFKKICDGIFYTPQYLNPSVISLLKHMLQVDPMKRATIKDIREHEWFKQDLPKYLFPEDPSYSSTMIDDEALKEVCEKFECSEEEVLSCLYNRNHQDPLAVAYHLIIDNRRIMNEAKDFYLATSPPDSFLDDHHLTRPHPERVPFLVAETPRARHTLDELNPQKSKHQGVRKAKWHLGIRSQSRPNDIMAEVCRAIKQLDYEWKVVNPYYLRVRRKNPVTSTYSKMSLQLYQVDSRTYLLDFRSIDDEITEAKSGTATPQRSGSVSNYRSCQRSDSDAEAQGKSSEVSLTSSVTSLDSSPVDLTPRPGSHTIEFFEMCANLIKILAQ
Chain of AMPK alpha2/beta2/gamma1 (Homo sapiens) (O43741 whole entry, looked up): as the sequence (O43741 whole entry, looked up) above
Chain of AMPK alpha2/beta2/gamma1 (Homo sapiens) (P54619 whole entry, looked up): as the sequence (P54619 whole entry, looked up) above
Chain of AMPK alpha2/beta2/gamma1 (Homo sapiens) (P54646 whole entry, looked up): as the sequence (P54646 whole entry, looked up) above

`CCC(=O)N1CCN(c2ccc(-n3c(=O)ccc4cnc5ccc(-c6cnc7ccccc7c6)cc5c43)cc2C(F)(F)F)CC1`: the % of control in [1] was 89%; in experiment [2], 100%.

For the molecule `COc1cc(Nc2nc(C)cc(-c3cnn4nc(OC)ccc34)n2)cc(C(F)(F)F)c1`, the % of control in experiment [3] came to 79%; in experiment [4] it was 100%; in [5], 83%.

For the molecule `C=CC(=O)Nc1cc(-n2c(=O)ccc3cnc4ccc(-c5ccc(NS(C)(=O)=O)cc5)cc4c32)ccc1C`, the % of control in experiment [6] (at 1 µM) and in [6] (at 10 µM) was 100% throughout.

On to `Cn1cc(-n2cnc3c(NCc4nc5cc(Cl)c(Cl)cc5[nH]4)nc(N4CCOCC4)nc32)cn1`, for which the % of inhibition in experiment [7] is -4.3%; in experiment [8] it was 2.78%; in experiment [9], 0.872%; in [10], 1.19%; in [11] it was -9.67%.

For `CNC(=O)Nc1ccc(-c2nc(N3CC4CCC(C3)O4)c3cnn(C4CCC5(CC4)OCCO5)c3n2)cc1`, in experiment [12], the % of control came out at 100%.

Take `CC[C@@H]1[C@H](F)C(=O)N[C@@H]1COc1nccc2cc(C(N)=O)c(OC)cc12` [ZIMLOVISERTIB]: the % of inhibition in experiment [13] (at 0.01 µM) is -6.6%; in experiment [13] (at 0.04 µM) it was 20.3%; in experiment [13] (at 0.2 µM), 53%; in experiment [13] (at 1 µM) it was 77.8%; in experiment [13] (at 5 µM), 94.8%.

`COc1cc(N(C)c2ccnc3ccc(C(F)(F)F)cc23)cc(OC)c1OC`: the % binding in [14] amounted to 82%; in [15], 76%.

In turn, `O[C@H]1CC[C@H](Nc2ncc3nc(Nc4c(F)cc(F)cc4F)n([C@H]4CCOC4)c3n2)CC1` showed a % of control in [16] of 97%.
